Legend:
[1] = target: T1, NLRP3 (Homo sapiens, UniProt Q96P20); test: PBMC assay: IL-1β levels in supernatant of LPS-stimulated human PBMCs (MSD); assay type: cell-based; conditions: 30 min compound pre-incubation, 100 ng/ml LPS for 6 hrs, IL-1β in supernatant, read-out: IL-1B IC50
T1 construct: human peripheral blood mononuclear cells (PBMCs) were isolated from blood; endogenous in cells; host or cells: primary human PBMCs from healthy donors
Protocol: The activity of a compound according to the present invention can be assessed by in vitro methods.
Peripheral venous blood was collected from healthy individuals and human peripheral blood mononuclear cells (PBMCs) were isolated from blood by Ficoll-Histopaque (Sigma-Aldrich, A0561) density gradient centrifugation. After isolation, PBMCs were stored in liquid nitrogen for later use. Upon thawing, PBMC cell viability was determined in growth medium (RPMI media supplemented with 10% fetal bovine serum, 1% Pen-Strep and 1% L-glutamine). […] PBMCs were added at a density of 7.5×10^4 cells per well and incubated for 30 min in a 5% CO2 incubator at 37° C. LPS stimulation was performed by addition of 100 ng/ml LPS (final concentration, Invivogen, tlrl-smlps) for 6 hrs followed by collection of cellular supernatant and the analysis of IL-1β […] and TNF cytokines levels […] via MSD technology according to manufacturers' guidelines (MSD, K15A0H).

[2] = test system: TNF; test: PBMC assay: TNF cytokine levels in supernatant of LPS-stimulated human PBMCs (MSD); assay type: cell-based; conditions: Homo sapiens, PBMC, 30 min compound pre-incubation, 100 ng/ml LPS for 6 hrs
Protocol: Peripheral venous blood was collected from healthy individuals and human peripheral blood mononuclear cells (PBMCs) were isolated from blood by Ficoll-Histopaque (Sigma-Aldrich, A0561) density gradient centrifugation. After isolation, PBMCs were stored in liquid nitrogen for later use. Upon thawing, PBMC cell viability was determined in growth medium (RPMI media supplemented with 10% fetal bovine serum, 1% Pen-Strep and 1% L-glutamine). Compounds were spotted in a 1:3 serial dilution in DMSO and diluted to the final concentration in 30 μl medium in 96 well plates (Falcon, 353072). PBMCs were added at a density of 7.5×10^4 cells per well and incubated for 30 min in a 5% CO2 incubator at 37° C. LPS stimulation was performed by addition of 100 ng/ml LPS (final concentration, Invivogen, tlrl-smlps) for 6 hrs followed by collection of cellular supernatant and the analysis of IL-1β […] and TNF cytokines levels […] via MSD technology according to manufacturers' guidelines (MSD, K15A0H).
The IC50 values (for IL-1β) and EC50 values (TNF) were obtained on compounds of the invention/examples, and are depicted in the following table: […]

T1 sequence (Q96P20 whole entry): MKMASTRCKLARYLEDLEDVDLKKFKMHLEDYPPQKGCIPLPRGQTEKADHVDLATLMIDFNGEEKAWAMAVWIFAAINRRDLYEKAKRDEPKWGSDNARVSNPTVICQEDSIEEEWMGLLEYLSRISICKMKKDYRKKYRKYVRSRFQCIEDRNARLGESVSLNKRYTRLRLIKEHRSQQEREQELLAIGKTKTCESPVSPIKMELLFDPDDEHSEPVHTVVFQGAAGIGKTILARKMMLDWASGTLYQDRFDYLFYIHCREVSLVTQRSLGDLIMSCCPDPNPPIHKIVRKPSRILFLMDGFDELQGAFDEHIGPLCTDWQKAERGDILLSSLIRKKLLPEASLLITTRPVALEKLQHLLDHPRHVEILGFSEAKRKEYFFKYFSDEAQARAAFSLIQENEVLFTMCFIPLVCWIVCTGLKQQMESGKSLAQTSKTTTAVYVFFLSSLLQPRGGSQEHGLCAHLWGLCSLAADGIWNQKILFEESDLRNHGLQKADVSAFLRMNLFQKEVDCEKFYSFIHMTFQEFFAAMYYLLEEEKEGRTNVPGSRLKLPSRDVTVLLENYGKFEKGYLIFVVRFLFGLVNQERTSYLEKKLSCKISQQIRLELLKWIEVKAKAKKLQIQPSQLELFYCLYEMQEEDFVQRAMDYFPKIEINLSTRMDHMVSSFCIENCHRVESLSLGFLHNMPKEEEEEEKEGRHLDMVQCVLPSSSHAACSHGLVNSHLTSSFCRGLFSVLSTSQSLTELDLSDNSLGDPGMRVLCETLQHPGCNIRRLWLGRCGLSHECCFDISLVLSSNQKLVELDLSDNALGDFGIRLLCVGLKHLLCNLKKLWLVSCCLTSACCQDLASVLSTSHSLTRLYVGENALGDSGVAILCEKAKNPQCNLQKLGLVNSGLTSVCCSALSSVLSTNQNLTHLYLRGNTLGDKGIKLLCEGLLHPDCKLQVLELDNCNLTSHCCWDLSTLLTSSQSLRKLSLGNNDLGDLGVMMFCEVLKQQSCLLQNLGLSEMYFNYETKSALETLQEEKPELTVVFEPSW

Compound | IC50 [1] [nM] | EC50 [2] [nM] | melting point [°C]
CC(C)c1nn(CC(=O)Nc2ccc(C(F)F)nc2)c(=O)c2sc(C3CC3)nc12 [F-45] | 907 | 17400 | 170.1
CC(C)c1nn(CC(=O)Nc2ccc(=O)n(C)c2)c(=O)c2sc(C3CC3)nc12 [F-46] | 137 | > 20000 | 240.9
CC(C)c1nn(CC(=O)Nc2cc(Cl)c(=O)n(C(F)F)c2)c(=O)c2sc(C3CC3)nc12 [F-48] | 1450 | 17900 | 206.7
CC(C)c1nn(CC(=O)Nc2ccc3nnc(C(F)(F)F)n3n2)c(=O)c2sc(C3CC3)nc12 [F-49, 2-(2-cyclopropyl-4-isopropyl-7-oxo-thiazolo[4,5-d]pyridazin-6-yl)-N-[3-(trifluoromethyl)-[1,2,4]triazolo[4,3-b]pyridazin-6-yl]acetamide] | 462 | > 20000 | 223.8
CC(C)c1nn(CC(=O)Nc2cc(C(F)(F)F)ncn2)c(=O)c2sc(C3CC3)nc12 [F-50] | > 20000 | > 20000 | 172
CC(C)c1nn(CC(=O)Nc2ccc3nccn3n2)c(=O)c2sc(C(C)(F)F)nc12 [F-53] | 215 | 11900 | 206.5
O=C(Cn1nc(C2CC2)c2nc(C3CC3)sc2c1=O)Nc1ccc2nncn2n1 [F-54] | 150 | ~17300 | 248.3
CC(C)c1nn(CC(=O)Nc2cc(F)[nH]c(=O)c2)c(=O)c2sc(C3CC3)nc12 [F-55] | 443 | > 20000 | 292.7
Cc1nnc2ccc(NC(=O)Cn3nc(C(C)C)c4nc(C5CC5)sc4c3=O)nn12 [F-56] | 110 | 10800 | 250
CC(C)c1nn(CC(=O)Nc2ccc3nncn3n2)c(=O)c2sc(C3CC3)nc12 [F-57] | 19 | 4890 | 245.4
CC(C)c1nn(CC(=O)Nc2ccc3nccn3n2)c(=O)c2sc(C3CC3)nc12 [F-59] | 69 | 2160 | 201.7
